Reference: paper PMC6686156, “Discovery of Sustainable Drugs for Neglected Tropical Diseases: Cashew Nut Shell Liquid (CNSL)‐Based Hybrids Target Mitochondrial Function and ATP Production in Trypanosoma brucei” (Chemmedchem, 2019)
Where two headings read alike, the source gives them in different places.

Tests used:
T. congolense IL3000 WT = assay: In vitro drug susceptibility assay (resazurin), T. congolense; format: cell-based; conditions: bloodstream forms, read-out: EC50 T. c. IL3000 WT
Protocol: (§1) Organisms and culture media: Only bloodstream trypomastigotes of T. b. brucei were used throughout this study. […] Parasites were cultured in vented flasks at 37 °C and 5 % CO2 atmosphere and they were passaged every 3 days. Bloodstream forms of T. congolense savannah‐type strain IL3000 were cultured in basal MEM medium, supplemented by 10 % fresh goat serum, 14 μL of β‐mercaptoethanol, 800 μL of 200 mM glutamine solution, and 10 mL of penicillin/streptomycin solution per liter of medium (pH 7.3).48 T. congolense were cultured in six‐well plates at 34 °C and 5 % CO2.
(§2) In brief, the assays were performed in 96‐well plates with 2×10^5 cells per well for T. b. brucei or 5×10^5 cells per well for T. congolense, in their respective culture media. First, 200 μL of test compounds’ solutions (400 μM, in T. brucei or T. congolense medium as appropriate) was added to the first well of each 12‐well row, from which doubling dilutions were conducted over one row per test compound. […] Fluorescence was detected using a FLUOstar Optima (BMG Labtech, Durham, NC, USA) at wavelength of 540 nm (excitation), 590 nm (emission). EC50 values were calculated by nonlinear regression using an equation for a sigmoidal dose–response curve with variable slope using Prism 5.0 (GraphPad Software Inc., San Diego, CA, USA).

[1] = tested on: T. b. brucei 427WT bloodstream trypomastigotes; assay: microbe, parasite or virus in culture; format: cell-based, Trypanosoma brucei brucei; conditions: for EC50: Trypanosoma brucei; for SI, selectivity index=EC50(HFF)/EC50(T. b. b. WT): HFF versus T. b. b. 427WT; for RF, resistance factor (+ 5 mM glycerol versus control): Table 2
Protocol: as §1, §2

T. brucei GAPDH = T. brucei GAPDH (Trypanosoma brucei brucei, UniProt P22512); assay: Inhibition of T. brucei GAPDH; format: biochemical; conditions: fixed concentration of 10 μM; data not shown; read-out: decrease of GAPDH activity
T. brucei GAPDH, sequence (P22512 whole entry): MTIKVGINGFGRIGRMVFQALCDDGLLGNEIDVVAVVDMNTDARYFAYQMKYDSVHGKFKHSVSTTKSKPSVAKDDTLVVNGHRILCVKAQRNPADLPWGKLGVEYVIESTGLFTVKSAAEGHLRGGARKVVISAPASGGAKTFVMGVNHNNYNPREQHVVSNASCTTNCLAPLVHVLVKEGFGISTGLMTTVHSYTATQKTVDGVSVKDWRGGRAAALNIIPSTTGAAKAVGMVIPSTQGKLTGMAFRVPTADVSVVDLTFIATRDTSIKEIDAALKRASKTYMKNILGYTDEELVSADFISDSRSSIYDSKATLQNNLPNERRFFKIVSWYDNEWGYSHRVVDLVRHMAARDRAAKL
Source text: […]. […] Limitations of solubility prevented us from testing the series at higher concentrations. However, it must be noted that we cannot exclude the possibility of a low‐affinity inhibition of GAPDH contributing to the trypanocidal effect, as compounds may accumulate to relatively high concentrations within the parasite.

T. b. brucei B48 = assay: microbe, parasite or virus in culture; format: cell-based, Trypanosoma brucei brucei; conditions: for RF, resistance factor relative to WT (B48): B48 versus 427WT; for EC50: Trypanosoma brucei, read-out: EC50 T. b. b. B48
Protocol: as §1, §2

[2] = tested on: T. b. brucei aqp2/aqp3‐KO; assay: microbe, parasite or virus in culture; format: cell-based, Trypanosoma brucei brucei; conditions: for EC50: Trypanosoma brucei, read-out: EC50 T. b. b. aqp2/aq3‐KO; for RF, resistance factor relative to WT (aqp2/aqp3-KO): aqp2/aqp3-KO versus 427WT
Protocol: as §1, §2

[3] = tested on: T. b. brucei 427WT trypomastigotes; assay: Growth curve / time-to-kill determination; format: cell-based, Trypanosoma brucei brucei; conditions: 1× EC50; for time to sterilize the culture: 427WT seeded at 1×10^5 cells/mL
Protocol: To determine whether 18–22 inhibited growth or cell division rather than causing cell death of T. b. brucei, cell growth curves were performed by treating 427WT trypomastigotes with concentrations corresponding to 0.5×, 1×, and 2× the EC50 value, using untreated cells as a control. Incubation with test compounds at half the EC50 (Figure 3 A) caused mostly some delayed growth phenotype, with rates increasing after 10 or 20 h. […] At double the concentration (Figure 3 C), all the hybrids cleared the culture between the 4 h and 8 h time points, with the cell populations rapidly declining between 2 and 4 h.
Untreated parasites, used as control, were grown in parallel. The cells were counted by using hemocytometer cell counter (cell count/mL×10^4) at 0, 2, 4, 8, 12, 24, 28, 32, 36, 48 h of incubation. Each experiment was performed as two independent replicates, and each sample was counted at least twice.

[4] = Cytotoxicity assay on human foreskin fibroblast (HFF), resazurin; format: cell-based; conditions: human foreskin fibroblast (HFF) cells, tested up to 200 μM, read-out: HFF cytotoxic activity (EC50)
Protocol: Cytotoxicity assay on human foreskin fibroblast (HFF): Toxicity of test compounds to mammalian cells was carried out using the resazurin assay previously described31 with slight modifications as follows. HFF cells were grown in a culture medium containing 500 mL of Dulbecco's modified Eagle's medium (DMEM; Sigma), 50 mL newborn calf serum (NBCS; Gibco), 5 mL penicillin/streptomycin (Gibco), and 5 mL of L‐Glutamax ([…], Gibco), at 37 °C and 5 % CO2 in vented flasks and passaged at 80–85 % of confluence. For the cytotoxicity assay, cells were suspended at 3×10^5 cells mL^−1 and 100 μL aliquots were added to each well of a 96‐well plate. The plate was incubated at 37 °C and 5 % CO2 for 24 h to allow cell adhesion. Serial test compounds dilution was performed in a different 96‐well plate and 100 μL of each dilution was transferred to each well containing cells, resulting in exposure of cells to 200–0.2 μM of test compound. Phenylarsine oxide (Sigma–Aldrich) was used as positive control and drug‐free incubation as negative control. The plates were incubated at 37 °C and 5 % CO2 for an additional 30 h, at which point 10 μL of resazurin solution ([…] in PBS) was added, followed by a final incubation for 24 h. The plates were read and the data analyzed as described above for the trypanosome assay.

[5] = 72 h, bloodstream trypomastigotes, resazurin, 48 h + 24 h, n=4, read-out: EC50 T. b. b. 427WT
[6] = Table 2, 5 mM glycerol in medium, average±SEM of three, read-out: EC50 s427WT + 5 mM glycerol
[7] = Table 2, no glycerol, average±SEM of three, read-out: EC50 Control s427WT

For `N=C(N)c1ccc(N=NNc2ccc(C(=N)N)cc2)cc1` [DA, Diminazene aceturate, reference compound], the EC50 (T. congolense IL3000 WT) was 0.17 ± 0.0003 µM.
For `CCCCCCCCCCCCCCCc1cccc(OC2=CC(=O)c3cccc(O)c3C2=O)c1` [Compound 16, 8‐Hydroxy‐2‐(3‐pentadecylphenoxy)naphthalene‐1,4‐dione], the EC50 [1, 5] was greater than 200 µM and the inhibition at 10 µM (T. brucei GAPDH) was less than 15%.
`CCCCCCCCCCCCCCCc1cccc(OC2=CC(=O)c3cccc(OC)c3C2=O)c1C(=O)OC` [Compound 9, Methyl 2‐((8‐methoxy‐1,4‐dioxo‐1,4‐dihydronaphthalen‐2‐yl)oxy)‐6 pentadecylbenzoate] gave an EC50 [1, 5] greater than 200 µM and an inhibition at 10 µM (T. brucei GAPDH) of less than 15%.
Work on `CCCCCCCCCCCCCCCc1cccc(OC2=CC(=O)c3ccccc3C2=O)c1` [Compound 13, 2‐(3‐Pentadecylphenoxy)naphthalene‐1,4‐dione] yielded an EC50 [1, 5] greater than 200 µM and an inhibition at 10 µM (T. brucei GAPDH) of less than 15%.
With `CCCCCCCCCCCCCCCc1cccc(OC2=CC(=O)c3c(O)cccc3C2=O)c1` [Compound 17, 5‐Hydroxy‐2‐(3‐pentadecylphenoxy)naphthalene‐1,4‐dione] the EC50 [1, 5] was greater than 200 µM and the inhibition at 10 µM (T. brucei GAPDH) was less than 15%.
With `CCCCCCCCCCCCCCCc1cccc(OC2=CC(=O)c3c(O)cccc3C2=O)c1C(=O)OC` [Compound 12, Methyl 2‐((5‐hydroxy‐1,4‐dioxo‐1,4‐dihydronaphthalen‐2‐yl)oxy)‐6‐pentadecylbenzoate] the EC50 [1, 5] was greater than 200 µM and the inhibition at 10 µM (T. brucei GAPDH) was less than 15%.
`CCCCCCCCCCCCCCCc1cccc(OC2=CC(=O)c3c(OC)cccc3C2=O)c1` [Compound 15, 5‐Methoxy‐2‐(3‐pentadecylphenoxy)naphthalene‐1,4‐dione] showed an EC50 [1, 5] greater than 200 µM and an inhibition at 10 µM (T. brucei GAPDH) of less than 15%.
With `N=C(N)c1ccc(OCCCCCOc2ccc(C(=N)N)cc2)cc1` [PMD, Pentamidine, reference compound] the “RF, resistance factor relative to WT (B48)” value (T. b. brucei B48) was 339, the EC50 (T. b. brucei B48) was 3.1 ± 0.7 µM and the EC50 [2] was 0.2 ± 0.01 µM. The “RF, resistance factor relative to WT (aqp2/aqp3-KO)” value [2] was 22.0 and the EC50 [1, 5] was 0.0093 ± 0.0001 µM.
Compound `CCCCCCCCCCCCCCCc1cccc(OC2=CC(=O)c3ccccc3C2=O)c1C(=O)OC` [Compound 8, Methyl 2‐((1,4‐dioxo‐1,4‐dihydronaphthalen‐2‐yl)oxy)‐6‐pentadecylbenzoate] has an EC50 [1, 5] greater than 200 µM and an inhibition at 10 µM (T. brucei GAPDH) of less than 15%.
`CCCCCCCCCCCCCCCc1cccc(OC2=CC(=O)c3cccc(OC)c3C2=O)c1` [Compound 14, 8‐Methoxy‐2‐(3‐pentadecylphenoxy)naphthalene‐1,4‐dione] showed an EC50 [1, 5] greater than 200 µM and an inhibition at 10 µM (T. brucei GAPDH) of less than 15%.
In the case of `O=C1C=C(Oc2cccc(CCCCCCCCO)c2)C(=O)c2ccccc21` [Compound 18, 2‐(3‐(8‐Hydroxyoctyl)phenoxy)naphthalene‐1,4‐dione], the “RF, resistance factor relative to WT (B48)” value (T. b. brucei B48) is reported as 0.95, the EC50 (T. b. brucei B48) is reported as 8.6 ± 2.4 µM and the EC50 [2] is reported as 10.1 ± 2.2 µM. For the same compound, the “RF, resistance factor relative to WT (aqp2/aqp3-KO)” value [2] was 1.1, the “SI, selectivity index=EC50(HFF)/EC50(T. b. b. WT)” value [1] was greater than 21.98 and the “RF, resistance factor (+ 5 mM glycerol versus control)” value [1] was 1.04. It also gave an EC50 [1, 5] of 9.1 ± 1.4 µM, an EC50 [1, 6] of 31.2 ± 0.6 µM and an EC50 [1, 7] of 30 ± 0.08 µM. For the same compound, the inhibition at 10 µM (T. brucei GAPDH) was less than 15%, the “time to sterilize the culture” value [3] was 2 h and the EC50 at 54 h [4] was greater than 200 µM.
In the case of `O=C1C=C(Oc2cccc(CCCCCCCCO)c2)C(=O)c2c(O)cccc21` [Compound 21, 8‐Hydroxy‐2‐(3‐(8‐hydroxyoctyl)phenoxy)naphthalene‐1,4‐dione], the “RF, resistance factor relative to WT (B48)” value (T. b. brucei B48) is reported as 0.91, the EC50 (T. b. brucei B48) is reported as 36.9 ± 5.3 µM and the EC50 [2] is reported as 46.7 ± 7.7 µM. The “RF, resistance factor relative to WT (aqp2/aqp3-KO)” value [2] was 1.2, the “SI, selectivity index=EC50(HFF)/EC50(T. b. b. WT)” value [1] was greater than 5 and the EC50 [1, 5] was 40.5 ± 4.9 µM. For the same compound, the inhibition at 10 µM (T. brucei GAPDH) was less than 15%, the “effect on cell growth” value ([3]; over 48 h) was “decreased the growth rate substantially, with a nearly trypanostatic effect over the first 12 h” and the EC50 at 54 h [4] was greater than 200 µM.
Work on `CCCCCCCCCCCCCCCc1cccc(OC2=CC(=O)c3c(OC)cccc3C2=O)c1C(=O)OC` [Compound 10, Methyl 2‐((5‐methoxy‐1,4‐dioxo‐1,4‐dihydronaphthalen‐2‐yl)oxy)‐6‐pentadecylbenzoate] yielded an EC50 [1, 5] greater than 200 µM and an inhibition at 10 µM (T. brucei GAPDH) of less than 15%.
Work on `CCCCCCCCCCCCCCCc1cccc(OC2=CC(=O)c3cccc(O)c3C2=O)c1C(=O)OC` [Compound 11, Methyl 2‐((8‐hydroxy‐1,4‐dioxo‐1,4‐dihydronaphthalen‐2‐yl)oxy)‐6‐pentadecylbenzoate] yielded an EC50 [1, 5] greater than 200 µM and an inhibition at 10 µM (T. brucei GAPDH) of less than 15%.
With `COc1cccc2c1C(=O)C(Oc1cccc(CCCCCCCCO)c1)=CC2=O` [Compound 19, 2‐(3‐(8‐Hydroxyoctyl)phenoxy)‐8‐methoxynaphthalene‐1,4‐dione] the “RF, resistance factor relative to WT (B48)” value (T. b. brucei B48) was 0.98, the EC50 (T. b. brucei B48) was 14.6 ± 1.7 µM and the EC50 [2] was 17.7 ± 1.5 µM. The “RF, resistance factor relative to WT (aqp2/aqp3-KO)” value [2] was 1.2, the “SI, selectivity index=EC50(HFF)/EC50(T. b. b. WT)” value [1] was greater than 13.3 and the “RF, resistance factor (+ 5 mM glycerol versus control)” value [1] was 0.97. The EC50 [1, 5] was 15 ± 1.3 µM, the EC50 [1, 6] was 16.3 ± 0.4 µM and the EC50 [1, 7] was 16.8 ± 0.06 µM. The inhibition at 10 µM (T. brucei GAPDH) was less than 15%, the “time to sterilize the culture” value [3] was 8 h and the EC50 at 54 h [4] was greater than 200 µM.
